Data as given in ChEMBL document CHEMBL4689842, “EUbOPEN Chemogenomics Library wave 1” (2021).

Assays:
Format in all cases: toxicity, cell-based
HEK-293T = assay: Incucyte cell viability with HEK293T; conditions: human, 10 µM, compound concentration 10 uM
Fibroblast = assay: Incucyte cell viability with human fibroblast; conditions: 10 µM, compound concentration 10 uM
U2OS = assay: Incucyte cell viability with U2OS; conditions: human, 10 µM, compound concentration 10 uM
[1] = 0 h, replicate number 1, timepoint 0 hours
[2] = 0 h, replicate number 2, timepoint 0 hours
[3] = 6 h, replicate number 1, timepoint 6 hours
[4] = 6 h, replicate number 2, timepoint 6 hours
[5] = 12 h, replicate number 1, timepoint 12 hours
[6] = 12 h, replicate number 2, timepoint 12 hours
[7] = 18 h, replicate number 1, timepoint 18 hours
[8] = 24 h, replicate number 1, timepoint 24 hours
[9] = 24 h, replicate number 2, timepoint 24 hours
[10] = 18 h, replicate number 2, timepoint 18 hours
Also: filed as whole numbers so only -1 and 0 and 1 occur.

Row | Compound | Growth Rate (HEK-293T; [1]) | Growth Rate (HEK-293T; [2]) | Growth Rate (HEK-293T; [3]) | Growth Rate (HEK-293T; [5]) | Growth Rate (HEK-293T; [7]) | Growth Rate (HEK-293T; [8]) | Growth Rate (Fibroblast; [1]) | Growth Rate (Fibroblast; [3]) | Growth Rate (Fibroblast; [7]) | Growth Rate (Fibroblast; [8]) | Growth Rate (U2OS; [4]) | Growth Rate (U2OS; [5]) | Growth Rate (U2OS; [7]) | Growth Rate (U2OS; [8]) | Growth Rate (HEK-293T; [9]) | Growth Rate (Fibroblast; [5]) | Growth Rate (Fibroblast; [6]) | Growth Rate (U2OS; [1]) | Growth Rate (U2OS; [3]) | Growth Rate (U2OS; [10]) | other results
1 | Oc1ccc(-c2nc3cc(O)cc(Br)c3o2)cc1 | 1 | 0 | 0 | 0 | 1 | 0 | 0 | 0 | 1 | 1 | 0 | 1 | 1 | 1 | – | – | – | – | – | – | Growth Rate (HEK-293T; [4]): 1; Growth Rate (HEK-293T; [6]): 1; Growth Rate (U2OS; [6]): 0
2 | CN(C)C(=O)Cn1cc(-c2nc(C3(c4ccc(-c5cnc(N)nc5)cc4)CC3)no2)cn1 [BI 0153] | – | 1 | 0 | 0 | 0 | 0 | 1 | 0 | 0 | 0 | – | 0 | 0 | 0 | 1 | 0 | 1 | 0 | 0 | – | Growth Rate (HEK-293T; [4]): 1; Growth Rate (HEK-293T; [6]): 1; Growth Rate (Fibroblast; [2]): 0; Growth Rate (Fibroblast; [9]): 1; Growth Rate (U2OS; [9]): 1
3 | CCNC(=O)c1cc2c(N3CCOC[C@@H]3C)ccnc2[nH]1 | 1 | 0 | 0 | 0 | 0 | 0 | 0 | 0 | 1 | 1 | 0 | 0 | 0 | 0 | – | 1 | 0 | 1 | 1 | – | Growth Rate (Fibroblast; [4]): 1; Growth Rate (Fibroblast; [10]): 0; Growth Rate (Fibroblast; [9]): 0
4 | CN(C(=O)Cc1ccc(Cl)c(Cl)c1)C(CN1CCCC1)c1cccc(OCC(=O)O)c1.Cl (centres undefined) | 0 | – | 1 | 1 | 1 | 1 | 0 | 0 | 0 | 0 | 1 | 0 | 0 | 1 | 0 | 0 | 1 | 0 | – | 1 | Growth Rate (HEK-293T; [4]): 0; Growth Rate (HEK-293T; [6]): 0; Growth Rate (U2OS; [6]): 1
5 | CCCOc1ccc([C@@H]2[C@@H](C(=O)O)[C@H](c3ccc4c(c3)OCO4)CN2CC(=O)Nc2c(CC)cccc2CC)cc1 [A-1806262] | 0 | – | 1 | 1 | 1 | 1 | 0 | 1 | 1 | 1 | 0 | 1 | 1 | 1 | 0 | 1 | 0 | 0 | 1 | 0 | Growth Rate (Fibroblast; [2]): 1; Growth Rate (Fibroblast; [4]): 0; Growth Rate (Fibroblast; [10]): 0; Growth Rate (Fibroblast; [9]): 0; Growth Rate (U2OS; [9]): 0
6 | FC(F)(F)c1c(N2CCC(c3ccccc3)CC2)ccn2c(CC3CC3)nnc12 | – | 0 | 0 | 0 | 0 | 0 | 0 | 1 | 1 | 0 | 1 | 0 | 0 | 0 | – | 1 | – | – | 0 | 1 | Growth Rate (Fibroblast; [10]): 0; Growth Rate (U2OS; [2]): 0; Growth Rate (U2OS; [6]): 1; Growth Rate (U2OS; [9]): 1
7 | C[C@H](c1ccnc(Nc2nc3ccc(-c4cc(N(C)C)ncn4)cc3[nH]2)c1)N1CCN(C(=O)CC(F)(F)F)CC1 [BAY-985] | 0 | 1 | – | – | – | – | 1 | 1 | 1 | 1 | – | 1 | 0 | 1 | 1 | 1 | – | 0 | 1 | 1 | –
